Reference: patent US20230405145A1, “IRON OXIDE NANOPARTICLE FOR SUPPRESSING DRUG-RESISTANT GENE FOR THE TREATMENT OF GLIOBLASTOMA” (University of Washington, priority 2020, published 2023)

Experiments:
[1] = tested on: GBM6 cells; experiment: Alamar blue viability assay, GBM6 stem-like cells; details: GBM6 (cancer stem cell)
Method: Cell survival assays. Alamar blue assay was used to evaluate cell viability following the manufacture's protocol (Life Technologies). […] AB assay was conducted at 2 days after transfection. Cells were washed with PBS (pH 7.4) three times before adding 10% AB in complete growth medium to the wells. After incubation for 1 hr, the AB solution was transferred to a 96-well plate, and fluorescent emissions at an excitation wavelength of 550 nm and an emission wavelength of 590 nm were read on a SpectraMax M5 microplate reader (Molecular Devices).

[2] = tested on: GBM6 orthotopic xenograft; experiment: Kaplan-Meier survival, orthotopic GBM6 xenograft; assay type: in vivo, NOD-SCID mice
Method: The mice were closely monitored during the entire treatment period until the time of euthanasia. […] Mice treated with NP-siMGMT-CTX extended their lifespan for 18.3 days while mice treated with TMZ alone extended their lifespan for 2.3 days.
Orthotopic xenograft tumor model and therapy response experiments. All xenograft therapy evaluations were conducted using a GBM6 orthotopic tumor model. The human GBM6 tumor was provided by the Mayo Clinic. The procedure for establishing intracranial tumors was described previously (B. L. Carlson, J. L. Pokorny, M. A. Schroeder, J. N. Sarkaria, Current Protocols in Pharmacology 2011, 52, 1; B. L. Carlson, P. T. Grogan, A. C. Mladek, M. A. Schroeder, G. J. Kitange, P. A. Decker, C. Giannini, W. Wu, K. A. Ballman, C. D. James, J. N. Sarkaria, International Journal of Radiation Oncology, Biology, Physics 2009, 75, 212). In brief, flank GBM6 tumor xenografts were harvested, mechanically disaggregated and stereotaxically injected into the frontal lobe of 6-week-old female NOD-SCID mice (Jackson Laboratories). […] At about 4 weeks post-tumor implantation, mice with similar tumor size as evaluated by MRI were randomized to one treatment group treated with NP-siMGMT-CTX+TMZ, and three control groups treated with either NP-siGFP-CTX+TMZ, TMZ only, or untreated. […]

[3] = tested on: SF763 cells; experiment: Clonogenic assay, MGMT-proficient SF763 cells; details: SF763 (GBM cell line)
[4] = tested on: A1235 cells; experiment: Clonogenic assay, MGMT-deficient A1235 cells; details: A1235 (GBM cell line)
[5] = tested on: primary brain tumors; details: cited from earlier work
[6] = systemic administration; cited from earlier work

Cn1nnc2c(C(N)=O)ncn2c1=O [TMZ, temozolomide]
TMZ required for effective treatment [1]: 4 mM
median survival ([2]; NPs given with TMZ per FIG. 5A schedule, TMZ 100 mg/kg oral): 40.8 ± 2.7 days
extension of lifespan ([2]; versus untreated mice): 2.3 days
TMZ required for effective treatment [3]: 400 µM
TMZ required for effective treatment [4]: 10 µM

chlorotoxin [CTX]
primary brain tumors targeted, of those examined [5]: 74 out of 79

Nc1nc(OCc2ccccc2)c2nc[nH]c2n1 [BG, O^6-benzylguanine]
toxicity in combination with TMZ [6]: severe myelotoxicity
